According to patent US20180015051A1, “MODULATORS OF ALPHA-DICARBONYL DETOXIFICATION AND THEIR USE FOR THE TREATMENT OF DIABETIC PATHOLOGIES” (Buck Institute for Research on Aging, priority 2016, published 2018):

Legend:
[1] = tested on: 50B11 cells (immortalized rat DRG neuronal cells); test: MGO-mediated neurotoxicity in differentiated 50B11 cells (DIC imaging, neurite length, soma size); format: cell-based; settings: 20-24 h
Description: 50B11 cells (immortalized rat DRG neuronal cells) maintain self-replication capability over many cell divisions (>300). The results described in this article were obtained with cells between 100 and 400 passages. Cells were grown in antibiotic treated complete Neurobasal media containing glucose, L-glutamine, Fetal Bovine Serum (FBS), B-27 supplement, and nerve growth factor (NGF) (100 ng/ml). Differentiation and axonal elongation was induced by addition of forskolin (75 pM) into the culture medium. […] Methylglyoxal was administered at a final concentration of 250 pM for 20-24 h post-differentiation of the cells. Podocarpic acid was added at a final concentration of 250 pM and incubated for the same period with or without methylglyoxal. Ethanol was used as a vehicle control. […] Neurite outgrowth was quantified by manually measuring the length of a projection from the edge of the cell body; a neurite was defined as a thin projection longer than the diameter of the associated cell body. Area of soma or cell body was measured excluding the neurite projections. Images were processed using Image Analyst MKII software (www.imageanalyst.net/) and quantification was done using Image J software (//imagei.nih.gov/ij/). 75-100 cells selected randomly were considered for quantification under each experimental condition.

TRPA1 (worm) = molecular target: T1, TRPA1 (worm) (Caenorhabditis elegans, UniProt Q18297); test: Calcium imaging of HEK293T cells (Rhod-3 AM), worm TRPA1; format: cell-based, C. elegans; settings: HEK293T transfected with worm TRPA1 and GFP; 100 pM or 1 mM MGO
T1 construct: expressed in transfected cells; host or cells: HEK293T
T1 sequence (Q18297 1-1211): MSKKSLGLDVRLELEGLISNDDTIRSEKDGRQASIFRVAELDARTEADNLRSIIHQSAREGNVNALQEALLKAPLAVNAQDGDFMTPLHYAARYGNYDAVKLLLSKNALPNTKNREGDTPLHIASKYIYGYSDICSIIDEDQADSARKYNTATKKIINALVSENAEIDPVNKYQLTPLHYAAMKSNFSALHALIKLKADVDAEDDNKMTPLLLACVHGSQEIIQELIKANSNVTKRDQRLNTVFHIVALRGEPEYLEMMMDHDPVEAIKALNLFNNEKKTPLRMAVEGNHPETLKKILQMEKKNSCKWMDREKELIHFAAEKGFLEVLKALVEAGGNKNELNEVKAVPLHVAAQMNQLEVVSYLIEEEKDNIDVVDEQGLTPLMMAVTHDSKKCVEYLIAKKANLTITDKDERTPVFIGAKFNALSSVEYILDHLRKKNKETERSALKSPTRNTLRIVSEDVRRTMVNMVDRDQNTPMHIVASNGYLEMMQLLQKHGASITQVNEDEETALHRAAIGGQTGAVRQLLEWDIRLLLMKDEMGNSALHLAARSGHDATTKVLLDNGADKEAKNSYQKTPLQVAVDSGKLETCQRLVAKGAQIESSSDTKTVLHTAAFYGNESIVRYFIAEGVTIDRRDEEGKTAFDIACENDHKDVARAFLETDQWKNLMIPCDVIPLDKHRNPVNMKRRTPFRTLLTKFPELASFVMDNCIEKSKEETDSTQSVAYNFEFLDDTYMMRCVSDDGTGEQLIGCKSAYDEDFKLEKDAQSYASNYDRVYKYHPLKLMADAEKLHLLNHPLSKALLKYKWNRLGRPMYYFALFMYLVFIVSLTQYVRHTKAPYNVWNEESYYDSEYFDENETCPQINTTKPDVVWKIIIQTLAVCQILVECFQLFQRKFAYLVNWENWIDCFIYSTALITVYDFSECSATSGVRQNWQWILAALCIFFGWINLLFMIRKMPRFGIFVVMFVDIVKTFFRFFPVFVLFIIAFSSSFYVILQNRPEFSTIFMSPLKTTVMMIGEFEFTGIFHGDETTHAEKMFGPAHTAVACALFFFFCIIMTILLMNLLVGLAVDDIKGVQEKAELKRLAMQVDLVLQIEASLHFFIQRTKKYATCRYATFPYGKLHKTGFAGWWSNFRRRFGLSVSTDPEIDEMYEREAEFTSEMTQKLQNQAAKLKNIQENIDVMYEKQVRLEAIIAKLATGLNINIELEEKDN
Description: Appropriate HEK293T-derived cells were seeded on collagen-coated glass bottom culture dishes (MatTek Corporation). Cells were loaded with 10 pM of Rhod-3 AM (Life Technology) for 30 min at 37° C. After 30 min they were washed twice with standard Tyrode's solution (135 mM NaCl, 4 mM KCl, 10 mM glucose, 10 mM HEPES, 2 mM CaCl2, and 1 mM MgCl2 at pH=7.4) at room temperature. Calcium imaging was performed on an Olympus BX51WI Axiovert microscope under a 60× objective. Fluorescent images were documented upon sequential excitation with 555 nm followed by 484 nm with a Roper CoolSnap CCD camera. After establishing a baseline 555/484 ratio, methylglyoxal or other agonists were diluted with Tyrode's solution (100 pM or 1 mM final concentration) and were perfused into cells. Images were processed with the MetaFlour (Olympus) software.

C. elegans = test: Swim-bend assay (body bends in liquid media); format: in vivo, Caenorhabditis elegans; settings: N2 animals; 7 mM MGO vs water
DAF-16/FOXO = test: DAF-16::GFP nuclear localization; format: in vivo, Caenorhabditis elegans; settings: 7 mM MGO vs water; heat shock positive control
Description: FIG. 11, panels A-E, SKN-1/Nrf2 activation due to exogenous MGO treatment and specificity of downstream response to a-DC stress. Related to FIG. 3. (A) Quantification (left) and fluorescence microscopy images (right) of GFP foci in gst-4p::gfp animals reared on empty vector (EV, L4440) or skn-1 RNAi supplemented with water (control) or 7 mM MGO. Foci are marked by white arrows. n=91. Scale bar 0.15 mm. […] Animals were categorized as follows: ‘high’ for strong GFP signal throughout the intestine, ‘medium’ for GFP signal in the anterior or posterior section of the intestine and ‘low’ for weak or no signal. n=100. (C) qPCR analysis of SKN-1 target genes, gst-4 and gcs-1 in N2 animals reared on EV or skn-1 RNAi supplemented with water (control, −) or 7 mM MGO (+). The data is normalized to the corresponding expression levels in N2 (EV, water), represented by the dotted line. (D) Fluorescence microscopy images depicting nuclear localization of DAF-16::GFP and SKN-1::GFP supplemented with water (control) or 7 mM MGO. Heat shock was used as a positive control to drive DAF-16 nuclear localization. Red arrows point towards nuclear localized transcription factors (SKN-1 and DAF-16). Scale bar 20 pm. (E) Fluorescence microscopy images to observe GFP foci in glod-4;gst-4p::gfp animals reared on empty vector (EV, L4440), sgk-1, sek-1, or pmk-1 RNAi. Scale bar 20 pm.

| Compound | MGO-induced neurotoxic phenotypes (cell body size, neurite outgrowth) ([1]; PA and MGO each at 250 pM) | Ca2+ flux (Rhod-3 AM fluorescence ratio 555/484 nm) (TRPA1 (worm)) | Neurite length (neurite outgrowth) ([1]; MGO 250 pM) | Soma size (cell bodies) ([1]; MGO 250 pM) | Motility (number of body bends in liquid media) (C. elegans) | DAF-16/FOXO nuclear localization (DAF-16/FOXO) |
| --- | --- | --- | --- | --- | --- | --- |
| C[C@]1(C(=O)O)CCC[C@]2(C)c3cc(O)ccc3CC[C@@H]12 [PA, podocarpic acid] | ameliorate these MGO-induced neurotoxic phenotypes |  |  |  |  |  |
| CC(=O)C=O [MGO, methylglyoxal] |  | induce a similar Ca^2+ flux | significant retraction of neurite outgrowths | shrinkage in cell bodies | lower motility | failed to trigger |
